Results: ChEMBL document CHEMBL3525936 (Drug Metab Dispos, 2012)

What was measured:
Liver microsome [1] = test: Drug metabolism in rat liver microsomes assessed as 1-(4-(4-fluoro-2-methyl-1H-indol-5-yloxy)-5-methylpyrrolo[1,2-f][1,2,4]triazin-6-yloxy)propan-2-one formation at 2 uM after 60 mins by LC/MS method in presence of 1 mM NADPH; format: ADME
[2] = Drug metabolism in monkey liver microsomes assessed as 1-(4-(4-fluoro-2-methyl-1H-indol-5-yloxy)-5-methylpyrrolo[1,2-f][1,2,4]triazin-6-yloxy)propan-2-one formation at 2 uM after 60 mins by LC/MS method in presence of 1 mM NADPH; format: ADME, Macaca mulatta; settings: rhesus monkey
Liver microsome [3] = test: Drug metabolism in human liver microsomes assessed as 1-(4-(4-fluoro-2-methyl-1H-indol-5-yloxy)-5-methylpyrrolo[1,2-f][1,2,4]triazin-6-yloxy)propan-2-one formation at 2 uM after 60 mins by LC/MS method in presence of 1 mM NADPH; format: ADME
Liver microsome [4] = test: Drug metabolism in rat liver microsomes assessed as 1-(4-(4-fluoro-2-methyl-1H-indol-5-yloxy)-5-methylpyrrolo[1,2-f][1,2,4]triazin-6-yloxy)propan-2-one formation at 2 uM after 60 mins by LC/MS method in absence of NADPH; format: ADME
[5] = Drug metabolism in monkey liver microsomes assessed as 1-(4-(4-fluoro-2-methyl-1H-indol-5-yloxy)-5-methylpyrrolo[1,2-f][1,2,4]triazin-6-yloxy)propan-2-one formation at 2 uM after 60 mins by LC/MS method in absence of NADPH; format: ADME, Macaca mulatta; settings: rhesus monkey
Liver microsome [6] = test: Drug metabolism in human liver microsomes assessed as 1-(4-(4-fluoro-2-methyl-1H-indol-5-yloxy)-5-methylpyrrolo[1,2-f][1,2,4]triazin-6-yloxy)propan-2-one formation at 2 uM after 60 mins by LC/MS method in absence of NADPH; format: ADME
[7] = Cmax in Sprague-Dawley rat plasma at 60 mg/kg, po administered as single dose via gavage by LC/MS analysis; format: ADME, organism-based; set-up: dose 60 mg/kg, route oral
[8] = Tmax in Sprague-Dawley rat plasma at 60 mg/kg, po administered as single dose via gavage by LC/MS analysis; format: ADME, organism-based; set-up: dose 60 mg/kg, route oral
[9] = AUC (0 to t) in Sprague-Dawley rat plasma at 60 mg/kg, po administered as single dose via gavage by LC/MS analysis; format: ADME, organism-based; set-up: dose 60 mg/kg, route oral
[10] = Cmax in cynomolgus monkey plasma at 10 mg/kg, po administered as single dose via gavage by LC/MS analysis; format: ADME, organism-based, Macaca fascicularis; set-up: dose 10 mg/kg, route oral
[11] = Tmax in cynomolgus monkey plasma at 10 mg/kg, po administered as single dose via gavage by LC/MS analysis; format: ADME, organism-based, Macaca fascicularis; set-up: dose 10 mg/kg, route oral
[12] = AUC (0 to t) in cynomolgus monkey plasma at 10 mg/kg, po administered as single dose via gavage by LC/MS analysis; format: ADME, organism-based, Macaca fascicularis; set-up: dose 10 mg/kg, route oral
[13] = Cmax in healthy human plasma at 400 mg, po administered as single dose via gavage by LC/MS analysis; format: ADME, organism-based; set-up: dose 400 mg, route oral
[14] = Tmax in healthy human plasma at 400 mg, po administered as single dose via gavage by LC/MS analysis; format: ADME, organism-based
[15] = AUC (0 to t) in healthy human plasma at 400 mg, po administered as single dose via gavage by LC/MS analysis; format: ADME, organism-based
Liver cytosol [16] = test: Drug metabolism in human liver cytosol assessed as sulfate metabolite formation by Michaelis-Menten equation […]; format: ADME
HUVEC [17] = test: Inhibition of VEGF-stimulated HUVEC cell proliferation assessed as 5-bromo-2-deoxyuridine incorporation; format: functional, cell-based; settings: Homo sapiens
HUVEC [18] = test: Inhibition of FGF-stimulated HUVEC cell proliferation assessed as 5-bromo-2-deoxyuridine incorporation; format: functional, cell-based; settings: Homo sapiens
HUVEC [19] = test: Inhibition of VEGF/FGF-stimulated HUVEC cell proliferation assessed as 5-bromo-2-deoxyuridine incorporation; format: functional, cell-based; settings: Homo sapiens
Liver cytosol [20] = test: Drug metabolism in rat liver cytosol assessed as sulfate metabolite formation by Michaelis-Menten equation […]; format: ADME
[21] = Drug metabolism in monkey liver cytosol assessed as sulfate metabolite formation by Michaelis-Menten equation […]; format: ADME, Macaca mulatta; settings: rhesus monkey
[22] = Drug metabolism in monkey liver microsomes assessed as (R)-1-(4-(4-fluoro-2-methyl-1H-indol-5-yloxy)-5-methylpyrrolo[1,2-f][1,2,4]triazin-6-yloxy)propan-2-ol formation at 10 uM after 60 mins by LC/MS analysis in absence of NADPH; format: ADME, Macaca mulatta; settings: rhesus monkey
Liver microsome [23] = test: Drug metabolism in human liver microsomes assessed as (R)-1-(4-(4-fluoro-2-methyl-1H-indol-5-yloxy)-5-methylpyrrolo[1,2-f][1,2,4]triazin-6-yloxy)propan-2-ol formation at 10 uM after 60 mins by LC/MS analysis in absence of NADPH; format: ADME
Liver microsome [24] = test: Drug metabolism in rat liver microsomes assessed as (R)-1-(4-(4-fluoro-2-methyl-1H-indol-5-yloxy)-5-methylpyrrolo[1,2-f][1,2,4]triazin-6-yloxy)propan-2-ol formation at 10 uM after 60 mins by LC/MS analysis in absence of NADPH; format: ADME
Liver microsome [25] = test: Drug level in rat liver microsomes assessed as compound formation treated with 2 uM [14C]brivanib alaninate after 60 mins by LC/MS method in presence of 1 mM NADPH; format: ADME; settings: 1 h
[26] = Drug level in monkey liver microsomes assessed as compound formation treated with 2 uM [14C]brivanib alaninate after 60 mins by LC/MS method in presence of 1 mM NADPH; format: ADME, Macaca mulatta; settings: rhesus monkey, 1 h
Liver microsome [27] = test: Drug level in human liver microsomes assessed as compound formation treated with 2 uM [14C]brivanib alaninate after 60 mins by LC/MS method in presence of 1 mM NADPH; format: ADME; settings: 1 h

Row | SMILES | Km (Liver cytosol [16]) | IC50 (HUVEC [17]) | IC50 (HUVEC [18]) | IC50 (HUVEC [19]) | Km (Liver cytosol [20]) | Km [21] | Drug metabolism (Liver microsome [25]) | Drug metabolism [26] | Drug metabolism (Liver microsome [27]) | also measured
1 | Cc1cc2c(F)c(Oc3n[14cH]nn4cc(OC[C@@H](C)OC(=O)[C@H](C)N)c(C)c34)ccc2[nH]1 | – | – | – | – | – | – | – | – | – | Drug metabolism (Liver microsome [1]): metabolite_detected; Drug metabolism [2]: metabolite_detected; Drug metabolism (Liver microsome [3]): metabolite_detected; Drug metabolism (Liver microsome [4]): metabolite_not_detected; Drug metabolism [5]: metabolite_not_detected; Drug metabolism (Liver microsome [6]): metabolite_not_detected
2 | Cc1cc2c(F)c(Oc3ncnn4cc(OC[C@@H](C)O)c(C)c34)ccc2[nH]1 [BRIVANIB] | 0.7 µM | 618 nM | 695 nM | 841 nM | 0.7 µM | 0.7 µM | – | – | – | Cmax [7]: 3500 ng/mL; Tmax [8]: 1 h; AUC(0-t) [9]: 7600 ng·h/mL; Cmax [10]: 1400 ng/mL; Tmax [11]: 1 h; AUC(0-t) [12]: 6800 ng·h/mL; Cmax [13]: 3500 ng/mL; Tmax [14]: 2 h; AUC(0-t) [15]: 21800 ng·h/mL
3 | Cc1cc2c(F)c(Oc3ncnn4cc(OC[C@H](C)O)c(C)c34)ccc2[nH]1 | 0.7 µM | 687 nM | 1010 nM | 807 nM | 0.7 µM | 0.7 µM | – | – | – | Drug metabolism [22]: metabolite_not_detected; Drug metabolism (Liver microsome [23]): metabolite_not_detected; Drug metabolism (Liver microsome [24]): metabolite_not_detected
4 | Cc1c(OC[C@@H](C)O)cn2ncnc(Oc3ccc4[nH]c(C(=O)O)cc4c3F)c12 | – | – | – | – | – | – | metabolite_detected | metabolite_detected | metabolite_detected | –
5 | CC(=O)COc1cn2ncnc(Oc3ccc4[nH]c(C)cc4c3F)c2c1C | – | – | – | – | – | – | metabolite_detected | metabolite_detected | metabolite_detected | –
6 | Cc1c(OC[C@@H](C)O)cn2ncnc(Oc3ccc4[nH]c(CO)cc4c3F)c12 | – | – | – | – | – | – | metabolite_detected | metabolite_detected | metabolite_detected | –
